Measurements taken from patent US8236523B2, “Camp reporters and high throughput assays” (The Johns Hopkins University, priority 2004, dated 2012).

How the values were obtained:
Format in all cases: cell-based
cAMP [1] = assay: Dual-emission ratio (FRET) imaging of Epac-based cAMP reporters (ICUE1 and targeted fusions) in HEK-293 cells; details: HEK293 cells expressing ICUE1; 10 μM ISO, 50 μM FSK, 10 μM PGE1, 300 μM 8-pCPT-2′-O-Me-cAMP; average ± S.E.M
Description: Cell Culture. […] Cells were then transfected with FuGENE-6 transfection reagent (Roche) or calcium phosphate and allowed to grow for 12-24 hours before imaging.
Imaging. Cells were washed twice with Hanks' balanced salt solution buffer after 12- to 24-h incubation at 37° C. culture medium. Cells were maintained in buffer in the dark at room temperature with addition of isoproterenol (Aldrich), forskolin (Calbiochem), Prostaglandin E1 (PGE1) (Sigma), and 8-(4-chloro-phenylthio)-2′-O-methyl adenosine 3′,5′-monophosphate (8-pCPT-2′-O-Me-cAMP) (Axxora Biolog) as indicated. Cells were also treated with P-(4,5-dimethoxy-2-nitrobenzyl) adenosine 3′,5′-monophosphate (DMNB-cAMP) (Molecular Probe).
Cells were imaged on a Zeiss Axiovert 200M microscope with a cooled charge-coupled device camera MicroMAX BFT512 (Roper Scientific) controlled by METAFLUOR 6.2 software (Universal Imaging). Dual-emission ratio imaging used a 420DF20 excitation filter, a 450DRLP dichroic mirror and two emission filters (475DF40 for ECFP, 535DF25 for citrine) alternated by a filter changer Lambda 10-2 (Sutter Instruments). Exposure time was 100-500 ms and images were taken every 8-30 s. Fluorescent images were background-corrected by subtracting autofluorescence intensities of untransfected cells (or background with no cells) from the emission intensities of fluorescent cells expressing reporters. The ratios of cyan to yellow emissions were then calculated at different time points and normalized by dividing all ratios by the emission ratio just prior to stimulation therefore setting the basal emission ratio to 1.

cAMP [2] = assay: High throughput 96-well plate assay using ICUE2 stable HEK293 cells; details: 1 μM Iso, 50 μM Fsk, 10 μM H89, 100 μM IBMX
Description: HEK293 cells which stably express ICUE2 (“ICUE2 stable HEK293 cells”) were grown to confluency in 10 cm dishes in DMEM, 10% FBS, 1% penicillin/streptomycin, and 250 μg/ml G418. HEK-293 cells were transfected with cDNA encoding ICUE2 using calcium phosphate at 40% confluency and allowed to grow for 40 hours. Cells were removed from the dish using 0.05% trypsin, spun down, and replaced with fresh media. ICUE2 stable HEK293 cells were counted on a hemocytometer using trypan blue stain. One hundred fifty thousand (150,000) cells were plated per well on a 96-well clear bottom assay plate in a total of 0.2 ml of media per […] and allowed to double once. Media was removed, cells were washed with Hanks buffered salt solution (HBSS) and then covered with 0.05 ml of HBSS per well. In a separate sterile plate, appropriate drugs were added to each well containing HBSS for a total volume of 0.05 ml. […] A baseline was established in three cycles, each consisting of a full plate reading of yellow intensity, followed by a reading of cyan intensity. Cells were then treated with isoproterenol (ISO; […] Readings were taken in six or twenty additional cycles. […] Baseline FRET ratios were calculated as the average ratio of yellow/cyan for each well before the addition of drug. FRET change was calculated as the percent increase of FRET ratio over baseline for each well during a given cycle. The FRET changes of all wells having undergone the same drug treatment were then averaged within each cycle, and that cycle was correlated with time.

cAMP [3] = assay: 96-well live cell plate reading of HEK293 cells expressing ICUE3; details: HEK293 cells expressing ICUE3, 1 μM ISO, 50 μM FSK
Description: Plate reading used a 420DF20 excitation filter and two emission filters (470DF40 for cyan and 535DF25 for yellow). A baseline was established in three cycles, each consisting of a full plate reading of yellow intensity, followed by a reading of cyan intensity. Cells were then treated with isoproterenol (ISO; Aldrich), forskolin (Calbiochem), H89, propranolol, and 3-isobutyl-1-methylxanthine (IBMX) as indicated. Readings were taken in six or twenty additional cycles. Each cycle lasted 60 to 145 sec. Baseline FRET ratios were calculated as the average ratio of yellow/cyan for each well before the addition of drug. FRET change was calculated as the percent increase of FRET ratio over baseline for each well during a given cycle. The FRET changes of all wells having undergone the same drug treatment were then averaged within each cycle, and that cycle was correlated with time.
Live cell plate reading. HEK293 cells were transfected with cDNA encoding ICUE reporters using calcium phosphate at 40% confluency and allowed to grow for 40 hours. Cells were then trypsinized and plated in a Costar 3603 96-well assay plate (Coming) at a density of 150,000 cells per well. After incubation for another 24 hours, cells were washed once with HBSS and left in 150 μl HBSS at 20-25° C. Fluorescence reading was taken on a FLUOstar OPTIMA fluorescence microplate reader (BMG Labtechnologies Inc.) using a 420DF20 excitation filter and two emission filters (470DF40 for cyan and […] for yellow). A baseline was established in three cycles, each consisting of a full plate reading of yellow intensity, followed by a reading of cyan intensity. Each cycle lasted between 64 and 145 seconds. Readings were taken in additional cycles. FRET change was calculated as the percent increase of emission ratios (cyan-to-yellow) over baseline for each well during a given cycle. To assess the efficacy of the assay, several statistical parameters were calculated, including Z factor, coefficient of variation, and signal-to-noise ratio (Zhang et al., J. Biomol. Screen. 4, 67-73, 1999).

`C=C[C@@]1(C)CC(=O)[C@]2(O)[C@@]3(C)[C@@H](O)CCC(C)(C)[C@@H]3[C@H](O)[C@H](OC(C)=O)[C@@]2(C)O1` [forskolin] was tested, and the “increase in the ratio of cyan to yellow emissions (FRET response)” value (cAMP [1]) was 19.6%±1.0, the “Average percent FRET response ± standard deviation, cycle 1” value (cAMP [2]; cycle 1 (1 cycle = 60 seconds)) was 0.36% ± 7.51% and the “Average percent FRET response ± standard deviation, cycle 2” value (cAMP [2]; cycle 2 (1 cycle = 60 seconds)) was 2.67% ± 4.53%. The “Average percent FRET response ± standard deviation, cycle 3” value (cAMP [2]; cycle 3 (1 cycle = 60 seconds)) was 8.71% ± 6.66%, the “Average percent FRET response ± standard deviation, cycle 4” value (cAMP [2]; cycle 4 (1 cycle = 60 seconds)) was 15.29% ± 3.37% and the “Average percent FRET response ± standard deviation, cycle 5” value (cAMP [2]; cycle 5 (1 cycle = 60 seconds)) was 15.23% ± 6.55%. The “Average percent FRET response ± standard deviation, cycle 6” value (cAMP [2]; cycle 6 (1 cycle = 60 seconds)) was 18.73% ± 3.97%, the “Average percent FRET response ± standard deviation, cycle 7” value (cAMP [2]; cycle 7 (1 cycle = 60 seconds)) was 20.79% ± 4.6% and the “Average percent FRET response ± standard deviation, cycle 8” value (cAMP [2]; cycle 8 (1 cycle = 60 seconds)) was 22.82% ± 4.58%. For the same molecule, the “Average percent FRET response ± standard deviation, cycle 9” value (cAMP [2]; cycle 9 (1 cycle = 60 seconds)) was 24.98% ± 3.69%, the “Average percent FRET response ± standard deviation, cycle 10” value (cAMP [2]; cycle 10 (1 cycle = 60 seconds)) was 23.4% ± 4.53% and the “Average percent FRET response ± standard deviation, cycle 11” value (cAMP [2]; cycle 11 (1 cycle = 60 seconds)) was 24.46% ± 3.51%. The “Average percent FRET response ± standard deviation, cycle 12” value (cAMP [2]; cycle 12 (1 cycle = 60 seconds)) was 25.44% ± 2.14%, the “Average percent FRET response ± standard deviation, cycle 13” value (cAMP [2]; cycle 13 (1 cycle = 60 seconds)) was 24.97% ± 3.91% and the “Average percent FRET response ± standard deviation, cycle 14” value (cAMP [2]; cycle 14 (1 cycle = 60 seconds)) was 25.6% ± 4.31%. The “Average percent FRET response ± standard deviation, cycle 15” value (cAMP [2]; cycle 15 (1 cycle = 60 seconds)) was 27.0% ± 1.87%, the “Average percent FRET response ± standard deviation, cycle 16” value (cAMP [2]; cycle 16 (1 cycle = 60 seconds)) was 25.84% ± 3.57% and the “Average percent FRET response ± standard deviation, cycle 17” value (cAMP [2]; cycle 17 (1 cycle = 60 seconds)) was 26.32% ± 1.66%. The “Average percent FRET response ± standard deviation, cycle 18” value (cAMP [2]; cycle 18 (1 cycle = 60 seconds)) was 25.94% ± 3.05%, the “Average percent FRET response ± standard deviation, cycle 19” value (cAMP [2]; cycle 19 (1 cycle = 60 seconds)) was 25.98% ± 2.13% and the “Average percent FRET response ± standard deviation, cycle 20” value (cAMP [2]; cycle 20 (1 cycle = 60 seconds)) was 25.51% ± 1.67%. The “Average percent FRET response ± standard deviation, 0 sec.” value (cAMP [3]; 0 sec., 10 μM PRO, 100 μM IBMX, 10 μM H89) was 9.05% ± 3.18%, the “Average percent FRET response ± standard deviation, 145 sec.” value (cAMP [3]; 145 sec., 10 μM PRO, 100 μM IBMX, 10 μM H89) was 13.0% ± 3.17% and the “Average percent FRET response ± standard deviation, 290 sec.” value (cAMP [3]; 290 sec., 10 μM PRO, 100 μM IBMX, 10 μM H89) was 14.8% ± 3.35%. The “Average percent FRET response ± standard deviation, 435 sec.” value (cAMP [3]; 435 sec., 10 μM PRO, 100 μM IBMX, 10 μM H89) was 16.7% ± 3.33%, the “Average percent FRET response ± standard deviation, 580 sec.” value (cAMP [3]; 580 sec., 10 μM PRO, 100 μM IBMX, 10 μM H89) was 16.8% ± 3.27% and the “Average percent FRET response ± standard deviation, 725 sec.” value (cAMP [3]; 725 sec., 10 μM PRO, 100 μM IBMX, 10 μM H89) was 17.9% ± 3.63%. The “maximal response / emission ratio change” value (cAMP [3]; n=7) was 17.9%±3.6%.
